# Assay results published in patent publication US20230381183A1, “USE OF FOLIC ACID AND FOLATE MODIFICATION IN INDUCING B-CELL IMMUNE TOLERANCE AND TARGETING mIgM-POSITIVELY-EXPRESSED B-CELL LYMPHOMA” (FUDAN UNIVERSITY, priority 2020, published 2023).
# Where no end group is shown, it is not given here.
# Tests used:
# KLH-specific antibodies = test: Oral folic acid: serum KLH-specific antibodies by ELISA; format: in vivo, BALB/c female mice; conditions: FA(ig) group vs physiological saline group; days 21, 28, 35
# Description: (§1) The BALB/c female mice (5 weeks old) were randomly divided into 4 groups, with 6 mice in each group, and were treated as follows: (1) FA(ig) group: each mouse was administered with 3 mg free folic acid by gavage every day for two weeks: (2) FA(ig)+OVA group: each mouse was administered with 3 mg free folic acid by gavage every day for two weeks, and was administered with OVA via tail vein injection on day 0 and day 7 respectively (10 μg/mouse): (3) OVA group: each mouse was administered with OVA via tail vein injection on days 0 and day 7 respectively (10 μg/mouse); (4) Physiological saline group: each mouse was administered with physiological saline via tail vein injection on day 0 and day 7 respectively. Then, on days 14, 21 and 28, all mice were administered with 100 μl mixed solution of OVA and KLH (hemocyanin) in water (100 μg/mL OVA and 100 ug/mL KLH). The serum was collected before the administration of the mixed solution on days 14, 21 and 28 and on day 35. The specific antibodies in the serum were detected by ELISA. […] The results also confirmed that the immune function of the body recovered when the administration of FA is discontinued.
# [1] = test system: antibodies against infliximab; test: Serum antibodies against infliximab by ELISA; format: in vivo, BALB/c female mice; conditions: FA gavage+infliximab group: 3 mg free folic acid per day for two weeks, infliximab 60 μg/mouse iv days 0, 7, 14; serum day 21
# Description: The BALB/c female mice (6 weeks old) were randomly divided into infliximab group, FA gavage+infliximab group and physiological saline group, with 5 mice in each group. For the infliximab group, a dose of 60 μg antibody/mouse was administrated via tail vein injection on days 0, 7 and 14. For the FA gavage+infliximab group, each mouse was administered with 3 mg free folic acid by gavage per day for two weeks, and infliximab was administered via tail vein injection at a dose of 60 μg antibody/mouse on days 0, 7 and 14. For the physiological saline group, the mice were injected with physiological saline via tail vein on days 0, 7 and 14. One week after the last administration (day 21), the serum was collected from the mice, and was measured by ELISA for the antibodies against infliximab.
# [2] = test system: antibodies against trastuzumab; test: Serum antibodies against trastuzumab by ELISA; format: in vivo, BALB/c female mice; conditions: FA gavage+trastuzumab group: 3 mg free folic acid per day for two weeks, trastuzumab 60 μg/mouse iv days 0, 7, 14; serum day 21
# Description: For the FA gavage+trastuzumab group, each mouse was administered by gavage with 3 mg free folic acid per day for two weeks, and trastuzumab was administered via tail vein injection at a dose of 60 μg antibody/mouse on days 0, 7 and 14. For the physiological saline group, the mice were injected with physiological saline via tail vein on days 0, 7 and 14. One week after the last administration (day 21), the serum was collected from the mice, and was measured by ELISA for the antibodies against trastuzumab.
# [3] = Water solubility (observation on preparation); format: physicochemical
# OVA-specific IgG = test: Oral folic acid: serum OVA-specific IgG by ELISA; format: in vivo, BALB/c female mice
# Description: as §1, with “The” for “The results also confirmed that the”
# antibodies against sLip = test: Serum antibodies against liposomes (sLip) by ELISA; format: in vivo, BALB/c female mice; conditions: mixed solution of liposome 5 mg/kg and 10 μg or 50 μg FA, single dose tail vein; serum 5 days after
# Description: Liposomes (sLip) were prepared firstly. HSPC. Chol and mPEG2000-DSPE (all purchased from AVT (Shanghai) Pharmaceutical Tech Co., Ltd.) were weighted in a molar ratio of 52:43:5. The film materials were dissolved in 5 mL chloroform, and the mixture was subjected to rotary evaporation under reduced pressure to remove chloroform, to obtain a uniform lipid film. Residual organic solvent was removed by vacuum drying overnight. Shaking in a water bath at 60° C. was performed until the liposome membrane is completely hydrated to obtain white liposome suspension. The liposome suspension went through 200 and 100 nuclear pore membrane by a micro-extruder sequentially, to obtain a liquid with pale blue opalescence, i.e., a liposome (sLip) solution.
# The BALB/c female mice (6 weeks old) were randomly divided into sLip group, sLip+FA (10 μg) group, sLip+FA (50 μg) group and physiological saline group, with 4 mice in each group. For the sLip group, the liposome solution (5 mg liposome/kg mouse body weight) was administered in a single dose via tail vein. For sLip+FA([…]) group, a mixed solution of liposome (5 mg liposome/kg mouse body weight) and 10 μg FA was administered in a single dose via tail vein. […] Serum was collected from all mice 5 days after administration, and was measured by ELISA for the concentrations of the antibodies against sLip.
# [4] = test system: experimental autoimmune encephalomyelitis (EAE) model; test: Experimental autoimmune encephalomyelitis (EAE) model; format: in vivo, female C57/BL6 mice; conditions: 10 μg/mouse iv once a week x3 before PLP emulsion induction
# Description: The efficacy of folate modification in autoimmune encephalomyelitis was investigated using an experimental autoimmune encephalomyelitis (EAE) model. The model was established as follows: the animals were injected with whole protein or protein fragment (e.g., PLP polypeptide) that induces nerve cell myelin sheath and peripheral protein, causing inflammation and demyelination symptoms and inducing the autoimmune response of the animal: thereby the injected self-proteins are regarded as foreign objects and cause the immune system to attack the self myelin sheath.
# The female C57/BL6 mice were intravenously injected with PLP polypeptide (amino acid sequence. […]) or folate-PLP complex (FA-PLP) at a dose of 10 μg/mouse, once a week for three times in total. One week later, the emulsion of PLP polypeptide in Freund's complete adjuvant was prepared, the concentration of PLP being 1 μg/μL. Four points were set up on both sides of the back of the mouse, and 0.05 mL PLP emulsion was injected subcutaneously at each point to induce inflammation, 2 and 24 hours after PLP injection, 150 ng pertussis toxin was injected intraperitoneally. The incidence in the mice was observed every day, and the mice were scored according to the 5-point scoring standard (Kono method). The incidence scoring curve was plotted.
# [5] = test system: Anti-Drug Antibodies (ADAs); conditions: phase I single-dose study, healthy subjects; cited from earlier work
compound,measurement,setting,value
Nc1nc2ncc(CNc3ccc(C(=O)N[C@@H](CCC(=O)O)C(=O)O)cc3)nc2c(=O)[nH]1 [folic acid],levels of KLH-specific antibodies in serum,KLH-specific antibodies,similar
same,level of antibodies against infliximab,[1],significantly lower than that in the infliximab group
same,level of antibodies against trastuzumab,[2],significantly lower than that in the trastuzumab group
same,water solubility,[3],insoluble in water
same,level of OVA-specific IgG in the serum,"OVA-specific IgG; day 28, FA(ig)+OVA group, after FA discontinued",comparable to that in the OVA group
same,level of OVA-specific IgG in the serum,"OVA-specific IgG; days 14 and 21, FA(ig)+OVA group: 3 mg free folic acid by gavage daily for two weeks, OVA 10 μg/mouse iv day 0 and 7",significantly lower than that in the OVA group
same,production of the antibodies against liposomes (sLip),antibodies against sLip,"effectively reduce the production of the antibodies against liposomes, and the effect increases as the concentration of folic acid increases"
"FA-PLP: folate-modified PLP polypeptide HSLGKWLGHPDKF (also: folate conjugate, site not given here)","immune tolerance to PLP / inflammatory response (incidence score, Kono method)",[4],causes the body's immune tolerance to PLP and contributes to reducing the inflammatory response
adalimumab,incidence of ADAs,[5],70-100%
